For orientation: logP means a log measure of how a compound divides between an organic and an aqueous phase. A high value points to a more lipophilic compound.

For data set [1] the following is noted: rats, cited from earlier work.
The conditions of data set [2]: doses ranging from 10 mg to 6000 mg, single and multiple doses; cited from earlier work.
Another data set deals with CB2 receptors (Homo sapiens, UniProt P34972). As to conditions: cited from earlier work.
Data set [3] is described as follows: Chemical characteristics of composition A′, concentrated and diluted forms. Format: physicochemical. On the procedure: Several tests were conducted to determine the chemical characteristics of composition A′, both in concentrated and diluted forms. […] All liquid nanodomain droplets range in size from 5 to 20 nm. The pH of both the concentrate and diluted formulations is between 6.0 and 7.5.

Chain of CB2 receptors (P34972 whole entry): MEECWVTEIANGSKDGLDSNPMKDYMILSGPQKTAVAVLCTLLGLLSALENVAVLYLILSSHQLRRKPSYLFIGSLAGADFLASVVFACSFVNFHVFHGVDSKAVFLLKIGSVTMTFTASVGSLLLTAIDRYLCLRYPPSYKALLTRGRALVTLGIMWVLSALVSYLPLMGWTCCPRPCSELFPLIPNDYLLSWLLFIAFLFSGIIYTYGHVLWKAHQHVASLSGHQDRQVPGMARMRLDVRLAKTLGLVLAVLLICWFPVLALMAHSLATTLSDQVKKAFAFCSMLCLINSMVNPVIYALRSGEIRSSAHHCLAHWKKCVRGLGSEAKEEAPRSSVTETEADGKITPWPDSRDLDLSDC

For `C=C(C)[C@@H]1CCC(C)=C[C@H]1c1c(O)cc(CCCCC)cc1O` [CBD, 2-(1R,6R)-3-methyl-6-prop-1-en-2-ylcyclohex-2-en-1-yl-5-pentylbenzene-1,3-diol], the T1/2 in data set [1] (120 mg/kg dose, oral) was 4 to 5 h. Further, the “Bioavailability of CBD delivered orally” value in data set [1] (single 10 mg/kg) is given as 2.8%. The Safety result in data set [2] was “safe”. Besides, the “Affinity for CB2 receptors” value at CB2 receptors is given as “low affinity”. The compound further displayed a logP in data set [3] of approximately 6.

Values taken from patent US20240252519A1, “METHODS FOR THE TREATMENT OF POST-TRAUMATIC STRESS DISORDER AND TRAUMATIC BRAIN INJURY WITH CANNABINOIDS” (ANANDA SCIENTIFIC, INC., priority 2021, published 2024).
